Test results as given in patent US20250296942A1, “Phosphonate-Based Coordination Complexes and Methods of Preparation and Use Thereof” (University of Puerto Rico, priority 2021, published 2025).

What was measured:
Type in all cases: cell-based
[1] = system: human breast cancer MCF-7 cell line; assay: AlamarBlue cytotoxicity, 2,2′-BPBPA series, MCF-7
Procedure: (§1) Cell culture methods. MCF-7 and MDA-MB-231 were incubated using DMEM at 37° C. in 5% CO2. The hFOB 1.19 cell lines were incubated with DMEM: F12 at 34° C. in 5% CO2.
(§2) Cell lines were supplemented using 10% FBS and 1% Pen-Strep. The media was replaced twice per week. Cell passages were carried out at 80% confluency.
(§3) Cell-based assays. Cell lines were seeded in 96 well plates at a density of 5x 10^3 cells/mL and incubated for 24 h before treatment. Cells were treated with 100 μL of 2,2′-BPBPA (0-400 μM), unloaded and loaded nano-Ca@2,2′-BPBPA (6.3-50 μM) for 24, 48, and 72 h.
(§4) Control groups were treated with media (DMEM or DMEM: F12) supplemented with 1% Pen-Strep. Cell viability was determined by employing AlamarBLue@. The media was replaced with 100 μL of 10% AlamarBlue® solution. After 24 h of incubation, the fluorescence was assessed at )max of 560 nm for excitation and 590 nm for emission.
(§5) Cell culture methods. MCF-7 and MDA-MB-231 were incubated using DMEM at 37° C. in 5% CO2. The hFOB 1.19 cell lines were incubated with DMEM: F12 at 34° C. in 5% CO2. Cell lines were supplemented using 10% FBS and 1% Pen-Strep. The media was replaced twice times per week. Cell passages were carried out at 80% confluency.
Seeding. Cell lines were seeded in 96 well plates at a density of 5×10^3 cells/mL; cells were incubated for 24 h before each treatment.
Treatment. Cell lines were treated with 100 μL of 2,2′-BPBPA (0-400 μM), unloaded and loaded nano-Ca@2,2′-BPBPA (6.3-50 μM). Control groups were treated with media (DMEM or DMEM: F12) supplemented with 1% Pen-Strep. All cell-based assays were conducted for 24, 48, and 72 h of treatment. Experiments were performed in triplicate.
AlamarBlue@assay. To determine the cell viability, the media was removed and replaced with 100 μL of 10% AlamarBlue® solution. The 96 well plates were incubated for 4 h before the measurements. Then, the fluorescence was assessed at 560 nm of excitation and λmax 590 nm of emission. The IC50 curves for MCF-7, MDA-MB-231, and hFOB 1.19 cell lines treated with 2,2′-BPBPA are presented in FIGS. 211A-211C, 212A-212C, and 213A-213C.

[2] = system: human osteoblast hFOB 1.19 cell line; assay: AlamarBlue cytotoxicity, 2,2′-BPBPA series, hFOB 1.19
Procedure: as §1, §2, §3, §4, §5
Seeding. […]
AlamarBlue@assay. […] Then, the fluorescence was assessed at 560 nm of excitation and λmax 590 nm of emission. […]

[3] = system: human osteoblast hFOB 1.19 cell line; assay: AlamarBlue cytotoxicity, BPBPA series, hFOB 1.19; conditions: for IC50: Homo sapiens, Osteoblast
Procedure: Cell culture methods. MCF-7, MDA-MB-231, and hFOB 1.19 cell lines were incubated employing DMEM (37° C.) and DMEM: F12 (34° C.) medium, respectively, in a 5% CO2. Cell lines were supplemented using 10% FBS and 1% Pen-Strep and medium exchange was performed twice a week. Cell passages were carried out at 80% confluency.
Cell-based assays. Cell lines were seeded in 96 well plates at a density of 5×10^3 cells/mL, cells were incubated for 24 h before treatment. Both cell lines were treated with 100 μL of BPBPA (0-400 μM), LET (0-200 μM), unloaded and loaded nano-Ca@BPBPA (0-50 μM). All cell-based assays were performed for 24, 48, and 72 h of treatment. Control groups were treated with media (DMEM or DMEM: F12) supplemented with 1% Pen-Strep. Then, the media was removed and replaced with 100 μL of 10% AlamarBlue® solution. The 96 well plates were incubated for 4 h before measurements. Then, the fluorescence was assessed at 560 nm of excitation and λmax 590 nm of emission. The cell viability (%) was evaluated by contrasting the percentage of live cells of the control groups with the cells treated with BPBPA, LET, unloaded and loaded nano-Ca@BPBPA. The half-maximal inhibitory concentration (IC50) was determined for BPBPA and letrozole employing the dose-response curves (% cell live vs. concentration). The relative cell live (% RCL) was assessed for the unloaded and loaded nano-Ca@BPBPA, utilizing LET as a control group. The IC50 and % RCL were plotted using the GraphPad Prism software vs. 9.3.0.
The cytotoxicity of BPBPA (control), LET (control), nano-Ca@BPBPA (control), and drug-loaded nano-Ca@BPBPA (experimental) was investigated employing the human breast cancer, MCF-7 and MDA-MB-231, and the human osteoblast, hFOB 1.19, cell lines. The human MCF-7 cell line represents an ER-positive breast cancer model with estrogen, progesterone, and glucocorticoid receptors.^1 While, the human MDA-MB-231 cells correspond to a model of ER-negative breast cancer. Both selected cancer cell lines can be implicated in the development and progress of bone metastases in patients.^40,41 The human fetal hFOB 1.19 cells represent a homogeneous osteoblast-like (non-cancerous) model commonly employed to assess osteoblast differentiation.^42 The cytotoxicity of these materials was evaluated by determining the IC50 and % RCL. […] Similar results were found for MDA-MB-231 and hFOB 1.19 cell lines treated with LET (IC50 >200 μM) at the same time points (Supporting Information).
Cell culture methods. MCF-7 and MDA-MB-231 were incubated employing DMEM media at 37° C. in 5% CO2. The hFOB 1.19 cell lines were incubated using DMEM: F12 at 34° C. in 5% CO2. […]
AlamarBlue@assay. […] Then, the fluorescence was assessed at 560 nm of excitation and λmax 590 nm of emission.

| Structure (SMILES) | IC50 ([1]; Homo sapiens, MCF7, 72 h) [µM] | IC50 ([2]; Homo sapiens, Osteoblast, 72 h) [µM] | % RCL ([3]; 12.5 μM, 72 h) [%] | IC50 ([3]; 24 h) [µM] | IC50 ([3]; 48 h) [µM] | IC50 ([3]; 72 h) [µM] | % RCL ([1]; 6.3 μM, 24 h) | % RCL ([1]; 6.3 μM, 48 h) [%] | % RCL ([1]; 6.3 μM, 72 h) [%] | % RCL ([1]; 12.5 μM, 24 h) [%] | % RCL ([1]; 12.5 μM, 48 h) [%] | % RCL ([1]; 12.5 μM, 72 h) [%] | % RCL ([1]; 25 μM, 24 h) [%] | % RCL ([1]; 25 μM, 72 h) [%] | % RCL ([1]; 50 μM, 24 h) [%] | % RCL ([1]; 50 μM, 72 h) [%] | % RCL ([2]; 6.3-50 μM, 24, 48, 72 h) [%] |
| --- | --- | --- | --- | --- | --- | --- | --- | --- | --- | --- | --- | --- | --- | --- | --- | --- | --- |
| O=P(O)(O)c1ccc(-c2ccc(P(=O)(O)O)cn2)nc1 [2,2′-BPBPA, 2,2′-bipyridine-5,5′-bisphosphonic acid] | 134 ± 2 | > 188 | – | – | – | – | – | – | – | – | – | – | – | – | – | – | – |
| N#Cc1ccc(C(c2ccc(C#N)cc2)n2cncn2)cc1 [LET, letrozole] | – | – | 100±1 | > 200 | > 200 | > 200 | about 100±2% | ~79 ±1 | ~74±3 | 100±2 | 71±3 | 68±2 | 100±1 | 46±2 | 99±1 | 40±1 | ~99 |
